Measurements from ChEMBL document CHEMBL3879911, “Heteroaryl compounds useful as inhibitors of E1 activating enzymes” (2008).

Biological target: T1, NEDD8 activating enzyme (Homo sapiens, UniProt Q8TBC4)
T1 sequence (Q8TBC4 whole entry): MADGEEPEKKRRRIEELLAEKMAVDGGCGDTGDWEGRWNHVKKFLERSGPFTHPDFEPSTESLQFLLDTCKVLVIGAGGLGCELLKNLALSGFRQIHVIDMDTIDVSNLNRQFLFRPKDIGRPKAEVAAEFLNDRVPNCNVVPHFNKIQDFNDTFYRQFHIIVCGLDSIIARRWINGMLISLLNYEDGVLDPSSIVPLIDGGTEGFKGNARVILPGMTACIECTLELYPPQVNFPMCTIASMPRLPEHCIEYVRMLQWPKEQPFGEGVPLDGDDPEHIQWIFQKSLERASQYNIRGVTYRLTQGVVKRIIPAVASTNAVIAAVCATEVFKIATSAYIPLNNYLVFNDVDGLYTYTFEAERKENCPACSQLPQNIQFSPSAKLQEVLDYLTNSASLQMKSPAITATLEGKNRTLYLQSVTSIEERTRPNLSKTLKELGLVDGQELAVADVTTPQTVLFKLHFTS
T1 sequence (Q13564 whole entry): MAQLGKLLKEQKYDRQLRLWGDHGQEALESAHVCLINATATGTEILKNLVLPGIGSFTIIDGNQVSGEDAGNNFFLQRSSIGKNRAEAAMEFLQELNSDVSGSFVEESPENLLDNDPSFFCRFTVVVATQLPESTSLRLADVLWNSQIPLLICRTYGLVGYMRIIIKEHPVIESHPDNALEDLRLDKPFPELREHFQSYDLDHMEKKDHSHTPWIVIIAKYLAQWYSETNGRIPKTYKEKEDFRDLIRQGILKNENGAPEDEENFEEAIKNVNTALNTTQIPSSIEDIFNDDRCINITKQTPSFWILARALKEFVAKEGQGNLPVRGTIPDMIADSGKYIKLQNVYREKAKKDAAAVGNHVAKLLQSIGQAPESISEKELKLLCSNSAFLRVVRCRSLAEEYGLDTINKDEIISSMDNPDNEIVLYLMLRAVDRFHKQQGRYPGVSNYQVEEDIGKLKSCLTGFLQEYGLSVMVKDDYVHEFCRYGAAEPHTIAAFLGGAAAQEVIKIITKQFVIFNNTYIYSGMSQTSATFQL
Assay: Inhibition of recombinant human NAEalpha/N-terminal His-tagged NAEbeta expressed in baculovirus infected insect Sf9 cells using N-terminal FLAG tagged Nedd8 as substrate incubated for 105 mins in presence of N-terminal GST-tagged Ubc12 by FRET assay

SMILES	IC50 [nM]
NS(=O)(=O)OC[C@H]1C[C@@H](Nc2ncnc(N[C@@H]3CCc4ccccc43)n2)[C@H](O)[C@@H]1O	≤ 500
CO[C@H]1CCc2ccccc2[C@H]1Nc1cc(O[C@@H]2C[C@@H](COS(N)(=O)=O)[C@@H](O)C2)ncn1	≤ 500
NS(=O)(=O)OC[C@H]1C[C@@H](Nc2ccnc(C(=O)N[C@H]3CCc4ccccc43)c2)[C@H](O)[C@@H]1O	> 10000
NS(=O)(=O)OC[C@H]1C[C@@H](Nc2cc(N[C@H]3CCc4c(Cl)cccc43)ncn2)[C@H](O)[C@@H]1O	≤ 500
NS(=O)(=O)OC[C@@H]1C[C@@H](Oc2ccncn2)C[C@@H]1O	> 10000
Cn1c(-c2ccccc2)nc2c(N[C@@H]3C[C@@H](COS(N)(=O)=O)[C@@H](O)C3)ncnc21	≤ 500
NS(=O)(=O)OC[C@@H]1C[C@@H](Nc2ncnc(N[C@H]3CCc4ccccc43)n2)C[C@@H]1O	≤ 500
NS(=O)(=O)OC[C@H]1C[C@@H](NC(=O)c2cccnc2)[C@H](O)[C@@H]1O	500 to 10000
NS(=O)(=O)OCC1C[C@@H](Nc2ncnc3[nH]c(C4CCCc5ccccc54)nc23)C[C@@H]1O (single isomer, unassigned)	≤ 500
CC1(C)C[C@H](Nc2nccc(N[C@@H]3C[C@H](COS(N)(=O)=O)[C@@H](O)[C@H]3O)n2)c2ccccc21	≤ 500
NS(=O)(=O)OC[C@H]1C[C@@H](Nc2ccnc(C(=O)N3CCc4ccccc43)c2)[C@H](O)[C@@H]1O	> 10000
NS(=O)(=O)OC[C@@H]1C[C@@H](Oc2ncnc3nc(-c4ccnc5cc(Cl)ccc45)[nH]c23)C[C@@H]1O	≤ 500
NS(=O)(=O)OC[C@@H]1C[C@@H](Nc2ncnc3[nH]c(-c4ccccc4C(F)(F)F)nc23)C[C@@H]1O	≤ 500
NS(=O)(=O)OC[C@@H]1C[C@@H](Nc2cc(N[C@H]3CCc4ccccc43)ncn2)C[C@@H]1O	≤ 500
NS(=O)(=O)OC[C@H]1C[C@@H](Nc2cc(N[C@H]3CCC[C@@H]3OCc3ccccc3)ncn2)[C@H](O)[C@@H]1O	500 to 10000
Cc1nc(N[C@H]2CCc3ccccc32)cc(N[C@@H]2C[C@H](COS(N)(=O)=O)[C@@H](O)[C@H]2O)n1	≤ 500
Cc1cccc(-c2nc3c(N[C@@H]4C[C@@H](COS(N)(=O)=O)[C@@H](O)C4)ncnc3[nH]2)c1C	≤ 500
NS(=O)(=O)OC[C@H]1C[C@@H](Nc2ncnc3[nH]c(-c4ccccc4)nc23)[C@H](O)[C@@H]1O	≤ 500
CO[C@H]1Cc2ccccc2[C@H]1Nc1ncnc(N[C@@H]2C[C@H](COS(N)(=O)=O)[C@@H](O)[C@H]2O)n1	≤ 500
NS(=O)(=O)OC[C@H]1C[C@@H](Nc2cc(NCC3CCCCC3)ncn2)[C@H](O)[C@@H]1O	≤ 500
CO[C@@H]1c2ccccc2C[C@@H]1Oc1cc(O[C@@H]2C[C@@H](COS(N)(=O)=O)[C@@H](O)C2)ncn1	500 to 10000
CN(c1ncnc2[nH]c(-c3cccc4ccccc34)nc12)[C@@H]1C[C@@H](COS(N)(=O)=O)[C@@H](O)C1	≤ 500

SMILES	IC50 [nM]
NS(=O)(=O)OC[C@@H]1C[C@@H](Nc2ncnc3[nH]c(-c4cccc(-c5ccccc5)c4)nc23)C[C@@H]1O	≤ 500
CN(C)C[C@H]1Cc2ccccc2[C@H]1Nc1cc(O[C@@H]2C[C@@H](COS(N)(=O)=O)[C@@H](O)C2)ncn1	500 to 10000
Cn1c(-c2ccccc2)nc2ncnc(N[C@@H]3C[C@@H](COS(N)(=O)=O)[C@@H](O)C3)c21	500 to 10000
C[C@H]1Cc2ccccc2[C@H]1Nc1cc(O[C@@H]2C[C@@H](COS(N)(=O)=O)[C@@H](O)C2)ncn1	≤ 500
CC1(C)C[C@H](Nc2cc(N[C@@H]3C[C@H](COS(N)(=O)=O)[C@@H](O)[C@H]3O)ncn2)c2ccccc21	≤ 500
NS(=O)(=O)OC[C@@H]1C[C@@H](Nc2ncnc3[nH]c(-c4cccc(Cl)c4)nc23)C[C@@H]1O	≤ 500
NS(=O)(=O)OC[C@@H]1C[C@@H](Oc2cc(N3CCc4ccccc4C3)ncn2)C[C@@H]1O	> 10000
NS(=O)(=O)OC[C@H]1C[C@@H](Nc2cc(C#Cc3ccccc3)ncn2)[C@H](O)[C@@H]1O	≤ 500
COc1ccc2c(c1)[C@H](Nc1cc(O[C@@H]3C[C@@H](COS(N)(=O)=O)[C@@H](O)C3)ncn1)[C@H](OC)CC2	500 to 10000
CC1CC(Nc2nccc(N[C@@H]3C[C@H](COS(N)(=O)=O)[C@@H](O)[C@H]3O)n2)c2ccccc21 (stereo not given in full)	≤ 500
NS(=O)(=O)OC[C@H]1C[C@@H](Nc2cc(N[C@H]3CCc4c(F)ccc(F)c43)ncn2)[C@H](O)[C@@H]1O	≤ 500
NS(=O)(=O)OC[C@H]1C[C@@H](Nc2cc(N[C@H]3CCc4cc(Cl)ccc43)ncn2)[C@H](O)[C@@H]1O	≤ 500
CO[C@@H]1Cc2ccccc2[C@@H]1Oc1cc(O[C@@H]2C[C@@H](COS(N)(=O)=O)[C@@H](O)C2)ncn1	500 to 10000
NS(=O)(=O)OC[C@@H]1C[C@@H](Oc2cc(Cc3ccccc3)ncn2)C[C@@H]1O	500 to 10000
NS(=O)(=O)OC[C@@H]1C[C@@H](Oc2cc(OCc3ccc(Cl)cc3)ncn2)C[C@@H]1O	> 10000
NS(=O)(=O)OC[C@H]1C[C@@H](Nc2cc(NCc3ccccc3)ncn2)[C@H](O)[C@@H]1O	≤ 500
NS(=O)(=O)OC[C@@H]1C[C@@H](N2CCc3c(N[C@H]4CCc5ccccc54)ncnc32)C[C@@H]1O	≤ 500
NS(=O)(=O)OC[C@@H]1C[C@@H](Oc2ncnc3nc(-c4cnn(Cc5ccccc5)c4)[nH]c23)C[C@@H]1O	≤ 500
NS(=O)(=O)OC[C@@H]1C[C@@H](Nc2cc(CCc3ccccc3)ncn2)C[C@@H]1O	500 to 10000
CC1(C)C[C@H](Nc2cc(O[C@@H]3C[C@@H](COS(N)(=O)=O)[C@@H](O)C3)ccn2)c2ccc(Cl)cc21	500 to 10000
NS(=O)(=O)OC[C@@H]1C[C@@H](Cc2cc(N[C@H]3CCc4ccccc43)ncn2)C[C@@H]1O	500 to 10000
NS(=O)(=O)OC[C@@H]1C[C@@H](Nc2ncnc3oc(-c4ccccc4)nc23)C[C@@H]1O	≤ 500

SMILES	IC50 [nM]
NS(=O)(=O)OC[C@H]1C[C@@H](Nc2cc(N[C@H]3CCc4c(F)cccc43)ncn2)[C@H](O)[C@@H]1O	≤ 500
NS(=O)(=O)OC[C@@H]1C[C@@H](Nc2ncnc3[nH]c(-c4ccccc4Oc4ccccc4)nc23)C[C@@H]1O	≤ 500
CO[C@H]1Cc2ccccc2[C@H]1Oc1cc(O[C@@H]2C[C@@H](COS(N)(=O)=O)[C@@H](O)C2)ncn1	500 to 10000
Cc1cccc(S(=O)(=O)c2nc3c(O[C@@H]4C[C@@H](COS(N)(=O)=O)[C@@H](O)C4)ncnc3[nH]2)c1	≤ 500
CO[C@@H]1CCc2ccccc2[C@@H]1Nc1cc(O[C@@H]2C[C@@H](COS(N)(=O)=O)[C@@H](O)C2)ncn1	≤ 500
CC(C)(C)c1nc2c(N[C@@H]3C[C@@H](COS(N)(=O)=O)[C@@H](O)C3)ncnc2[nH]1	≤ 500
CN(Cc1ccccc1)c1nccc(N[C@@H]2C[C@H](COS(N)(=O)=O)[C@@H](O)[C@H]2O)n1	> 10000
CC1(C)C[C@H](Nc2ncnc(N[C@@H]3C[C@@H](COS(N)(=O)=O)[C@@H](O)C3)n2)c2ccccc21	≤ 500
NS(=O)(=O)OC[C@H]1C[C@@H](Nc2ccnc(NCC3CCCCC3)n2)[C@H](O)[C@@H]1O	500 to 10000
NS(=O)(=O)OC[C@@H]1C[C@@H](O)[C@H](Nc2cc(N[C@H]3CCc4ccccc43)ncn2)C1	> 10000
COc1ccc2c(c1)[C@@H](Nc1cc(O[C@@H]3C[C@@H](COS(N)(=O)=O)[C@@H](O)C3)ncn1)[C@@H](OC)CC2	500 to 10000
CO[C@@H]1CC(C)(C)c2ccccc2[C@@H]1Nc1cc(O[C@@H]2C[C@@H](COS(N)(=O)=O)[C@@H](O)C2)ncn1	≤ 500
NS(=O)(=O)OC[C@H]1C[C@@H](Nc2nc(N[C@H]3CCc4ccccc43)ncc2F)[C@H](O)[C@@H]1O	500 to 10000
NS(=O)(=O)OC[C@@H]1C[C@@H](Nc2ncnc3[nH]c(-c4ccccc4OCc4ccccc4)nc23)C[C@@H]1O	≤ 500
CO[C@H]1Cc2ccccc2[C@H]1Nc1cc(N[C@@H]2C[C@@H](COS(N)(=O)=O)[C@@H](O)C2)ncn1	≤ 500
NS(=O)(=O)OC[C@@H]1C[C@@H](Nc2ncnc(N[C@@H]3c4ccccc4CC3(F)F)n2)C[C@@H]1O	≤ 500
NS(=O)(=O)OC[C@@H]1C[C@@H](Nc2ncnc3[nH]c(-c4ccccc4)nc23)C[C@@H]1O	≤ 500
NS(=O)(=O)OC[C@@H]1C[C@@H](Nc2ncnc3[nH]c(Cc4ccccc4)nc23)C[C@@H]1O	≤ 500
Cc1nc(N[C@H]2CCc3ccccc32)nc(N[C@@H]2C[C@H](COS(N)(=O)=O)[C@@H](O)[C@H]2O)n1	≤ 500
CO[C@H]1c2ccccc2C[C@H]1Oc1cc(O[C@@H]2C[C@@H](COS(N)(=O)=O)[C@@H](O)C2)ncn1	500 to 10000
NS(=O)(=O)OC[C@@H]1C[C@@H](Oc2cc(OCc3cccc4ccccc34)ncn2)C[C@@H]1O	500 to 10000
